Measured values from ChEMBL document CHEMBL1143682, “Investigation into the P3 binding domain of m-calpain using photoswitchable diazo- and triazene-dipeptide aldehydes: new anticataract agents” (J Med Chem, 2007).
pIC50: −log10 of the molar value.

Assay: Inhibition of sheep M-calpain by fluorescence based assay
Set-up: species or system Ovis aries

pIC50	Compound
6.77	CC(C)[C@H](NC(=O)c1cccc(/N=N/c2ccccc2)c1)C(=O)N[C@H](C=O)Cc1ccccc1
7.46	CC(C)[C@H](NC(=O)c1ccc(/N=N/c2ccccc2)cc1)C(=O)N[C@H](C=O)Cc1ccccc1
